# Measurements reported in paper PMC10786919, “Design-rules for stapled peptides with in vivo activity and their application to Mdm2/X antagonists” (Nature Communications, 2024).
# Where “and” joins values, the source holds several entries; their conditions need not be identical. Identical values can stand only once. Like-named read-outs stand apart in the source and are kept apart here. Positions of bridges follow the written chain, without caps; N, C: chain ends. Non-standard residues stand in square brackets, D forms with d. Residues, ends and D or L forms follow the SMILES beside them. dPhe(4-CF3) = N[C@H](Cc1ccc(C(F)(F)F)cc1)C(=O)O; dTrp(6-F) = N[C@H](Cc1c[nH]c2cc(F)ccc12)C(=O)O; Lys(N3) = [N-]=[N+]=NCCCC[C@H](N)C(=O)O; R8 = C=CCCCCCC[C@@](C)(N)C(=O)O; Cba = N[C@@H](CC1CCC1)C(=O)O; R5 = C=CCCC[C@@](C)(N)C(=O)O; S5 = C=CCCC[C@](C)(N)C(=O)O; βAla = NCCC(=O)O
# Key:
# [1] = tested on: p53 responsive β-lactamase reporter in HCT116 cells; experiment: cells; assay type: cell-based
# Summary of the method: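 HCT116 cells stably carrying a p53-responsive β-lactamase reporter, seeded at 8000 cells/well, with 0.5% DMSO final. Reporter activity read by ToxBLAzer Dual Screen. Values are geometric means of at least three biological replicates.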
# physchem [2] = experiment: physchem
# [3] = tested on: Jump-In T-REx CHO-K1 BLA cells; experiment: cells; assay type: cell-based
# [4] = Solubility assay (kinetic solubility, PBS pH 7); assay type: physicochemical
# Summary of the method: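 Values derive from peak-area ratios of sample versus a 100 µM standard, scaled by that standard's concentration.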
# [5] = Experimental LogD (partition coefficient); conditions: for logD: not stated, Partition Coeff LogD
# [6] = Circular dichroism (CD) helicity; assay type: physicochemical
# Method: A total of 5 µL of the 10 mM stock peptide was mixed with 45 µL of 100% methanol, and dried for 2 h in the SpeedVac concentrator (Thermo Scientific). The dried peptide was reconstituted in a buffer (1 mM Hepes pH 7.4 and 5% methanol) to a concentration of 1 mM. The peptide sample was placed in a quartz cuvette with a path length of 0.2 cm. The peptide concentration was determined by the absorbance of the peptide at […]. The CD spectrum was recorded from 300 to 190 nm using the Chirascan-plus qCD machine (Applied Photophysics, Surrey, UK), at 25 °C. All experiments were done in duplicates. The CD spectrum was converted to mean residue ellipticity before deconvolution and estimation of the secondary structure components of the peptide using the CDNN software (distributed by Applied Photophysics). Measurements were taken at least twice and were reported as arithmetic means.
# physchem [7] = experiment: physchem; remark: listed apart in the source
# physchem [8] = experiment: physchem; remark: listed apart in the source
# [9] = 0% FBS 4Hr, read-out: p53 reporter assay EC50
# [10] = 0% FBS 16Hr, read-out: p53 reporter assay EC50
# [11] = 10% FBS 4Hr, read-out: p53 reporter assay EC50
# [12] = 0% FBS 4Hr, read-out: TETCHO: Counterscreen EC50
# [13] = pH 7, aqueous buffer, kinetic from dmso stock, pH 7, PBS, read-out: Solubility
# [14] = 0% FBS 4Hr, read-out: p53 reporter assay: EC50
# [15] = read-out: Cell EC50 (4 hr, 0% FBS), p53 reporter assay, 4 hr, 0% FBS
# [16] = read-out: Cell EC50 (16 hr, 10% FBS), p53 reporter assay, 16 hr, 10% FBS
# [17] = 10% FBS 16Hr, read-out: TETCHO: Counterscreen EC50
# [18] = 10% FBS 16Hr, read-out: p53 reporter assay EC50
# [19] = 4 hours, 0% serum, read-out: TETCHO Counterscreen EC50
SMILES,"EC50 [1, 9]",TETCHO: Counterscreen % Effect ([3]; 0% FBS 4Hr),"EC50 [3, 12]","solubility kinetic [4, 13]",logD [5],"EC50 [1, 15]","EC50 [1, 16]",TETCHO: Counterscreen % Effect ([3]; 10% FBS 16Hr),"EC50 [3, 17]",CD % Helicity [6],p53 reporter assay % Effect ([1]; 0% FBS 4Hr),p53 reporter assay % Effect ([1]; 10% FBS 16Hr),"EC50 [1, 18]",EPSA (physchem [8]),other results
CC(=O)N[C@@H](CCCCN=[N+]=[N-])C(=O)NCCC(=O)N[C@@H](CC(C)C)C(=O)N[C@H](C(=O)N[C@@H](Cc1ccccc1)C(=O)N[C@]1(C)CCCCCCC=CCCC[C@@](C)(C(=O)N[C@@H](CO)C(=O)N[C@@H](C)C(=O)N[C@@H](C)C(N)=O)NC(=O)[C@H](CC2CCC2)NC(=O)[C@H](CCC(N)=O)NC(=O)[C@H](C)NC(=O)[C@H](Cc2c[nH]c3ccccc23)NC(=O)[C@H](Cc2ccc(O)cc2)NC(=O)[C@H](Cc2c[nH]c3ccccc23)NC1=O)[C@@H](C)O [MP-185] (Ac-[Lys(N3)][βAla]LTF[R8]WYWAQ[Cba][S5]SAA-NH2; staple 6-13),0.137 µM,4.64%,> 50 µM,2 µM,4,–,–,–,–,–,–,–,–,–,"EC50 [1, 10]: 0.214 µM; p53 reporter assay % Effect ([1]; 10% FBS 4Hr): 14.92%; EC50 [1, 11]: 1.86 µM; EPSA (physchem [2]): 226 A^2; TETCHO: Counterscreen % Effect ([3]; 0% FBS 16Hr): 9.8%"
CC(=O)N[C@@H](CCCCN=[N+]=[N-])C(=O)NCCC(=O)N[C@@H](CC(C)C)C(=O)N[C@H](C(=O)N[C@@H](Cc1ccccc1)C(=O)N[C@]1(C)CCCCCCC=CCCC[C@@](C)(C(=O)N2CCC[C@@H]2C(=O)N2CCC[C@@H]2C(=O)N2CCC[C@@H]2C(=O)N2CCC[C@@H]2C(=O)N2CCC[C@@H]2C(=O)N2CCC[C@@H]2C(N)=O)NC(=O)[C@H](CC2CCC2)NC(=O)[C@H](CCC(N)=O)NC(=O)[C@H](C)NC(=O)[C@H](Cc2c[nH]c3ccccc23)NC(=O)[C@H](Cc2ccc(O)cc2)NC(=O)[C@H](CCC(=O)O)NC1=O)[C@@H](C)O [MP-896],–,-4.745%,> 50.4 µM,–,–,> 50 µM,> 50 µM,-12.59%,> 50.4 µM,19.15%,–,–,–,–,"p53 reporter assay: % Effect ([1]; 0% FBS 4Hr): 28.91%; EC50 [1, 14]: > 50.4 µM; p53 reporter assay: % Effect ([1]; 10% FBS 16Hr): 32.76%; EC50 ([1]; 10% FBS 16Hr, read-out: p53 reporter assay: EC50): > 50.4 µM; Aqueous solution helicity ([6]; circular dichroism): 19.15%; Solubility [4]: P.B.; Solubility ([4]; pH 7, PBS): Poorly Behaved; Partition Coeff LogD [5]: Poorly Behaved"
CC(=O)N[C@@H](CC(C)C)C(=O)N[C@H](C(=O)N[C@@H](Cc1ccccc1)C(=O)N[C@]1(C)CCCCCCC=CCCC[C@@](C)(C(=O)N[C@@H](CO)C(=O)N[C@@H](C)C(=O)N[C@@H](C)C(N)=O)NC(=O)[C@@H](CC2CCC2)NC(=O)[C@H](CC(C)C)NC(=O)[C@H](CCC(N)=O)NC(=O)[C@H](Cc2c[nH]c3ccccc23)NC(=O)[C@H](Cc2ccc(O)cc2)NC(=O)[C@H](CCC(=O)O)NC1=O)[C@@H](C)O [MP-009],8.27 µM,4.797%,> 50.6 µM,79.3 µM,2.7,–,–,–,–,23.85%,–,–,–,–,"EC50 [1, 10]: 29.5 µM; EC50 [1, 11]: > 50.6 µM; EPSA (physchem [2]): 204 A^2; TETCHO: Counterscreen % Effect ([3]; 0% FBS 16Hr): -1.31%"
"CC(=O)N[C@@H](CCCCN=[N+]=[N-])C(=O)NCCC(=O)N[C@@H](CC(N)=O)C(=O)N[C@H](C(=O)N[C@@H](Cc1ccccc1)C(=O)N[C@]1(C)CCCCCCC=CCCC[C@@](C)(C(=O)N[C@@H](CC(N)=O)C(=O)N[C@@H](CC(N)=O)C(=O)N[C@@H](CC(N)=O)C(N)=O)NC(=O)[C@H](CC2CCC2)NC(=O)[C@H](CCC(N)=O)NC(=O)[C@H](CC(N)=O)NC(=O)[C@H](Cc2c[nH]c3ccccc23)NC(=O)[C@H](Cc2ccc(O)cc2)NC(=O)[C@H](CC(N)=O)NC1=O)[C@@H](C)O [MP-359, azide-ATSP-7041 (L1N, E5N, A8N, S12N, A13N, A14N)] (Ac-[Lys(N3)][βAla]NTF[R8]NYWNQ[Cba][S5]NNN-NH2; staple 6-13)",–,8.184%,> 50.6 µM,53.7 µM,2.12,–,–,–,–,39.55%,–,–,–,–,"EC50 [1, 14]: 32.2 µM; EPSA (physchem [7]): 238 A^2"
CC(C)C[C@@H](NC(=O)[C@@]1(C)CCCC=CCCC[C@@](C)(NC(=O)[C@@H](C)NC(=O)[C@@H](Cc2ccc(O)cc2)NC(=O)[C@@H](Cc2c[nH]c3cc(F)ccc23)NC(=O)[C@@H](C)NC(=O)[C@H](N)[C@H](C)O)C(=O)N[C@H](Cc2ccc(C(F)(F)F)cc2)C(=O)N[C@H](CCC(=O)O)C(=O)N[C@H](CCC(N)=O)C(=O)N1)C(=O)N[C@H](CO)C(N)=O [MP-795] (H-[dT][dA][dTrp(6-F)][dY][dA][R5][dPhe(4-CF3)][dE][dQ][R5][dL][dS]-NH2; staple 6-10),5.18 µM,35.97%,> 50.4 µM,–,2.32,–,–,0.2467%,> 50.4 µM,–,142.6%,21.51%,> 50.4 µM,234 A^2,"solubility kinetic ([4]; pH 7, Solubility): 1 µM"
CC(=O)N[C@@H](C(=O)N[C@H](C)C(=O)N[C@H](Cc1c[nH]c2cc(F)ccc12)C(=O)N[C@H](Cc1ccc(O)cc1)C(=O)N[C@H](C)C(=O)N[C@]1(C)CCCC=CCCC[C@](C)(C(=O)N[C@H](CC(C)C)C(=O)N[C@H](CO)C(N)=O)NC(=O)[C@@H](CCC(N)=O)NC(=O)[C@@H](CCC(=O)O)NC(=O)[C@@H](Cc2ccc(C(F)(F)F)cc2)NC1=O)[C@H](C)O [MP-797] (Ac-[dT][dA][dTrp(6-F)][dY][dA][R5][dPhe(4-CF3)][dE][dQ][R5][dL][dS]-NH2; staple 6-10),3.61 µM,17.03%,> 50.4 µM,–,–,3.6 µM,> 50 µM,-11.41%,> 50.4 µM,26.6%,74.63%,8.593%,> 50.4 µM,198 A^2,"improvement of cellular activity vs MP-769 ([1]; 0% serum, 4-hour assay): 3 fold; EC50 [3, 19]: > 50 µM"
CC(=O)N[C@@H](C(=O)N[C@H](C)C(=O)N[C@H](Cc1c[nH]c2cc(F)ccc12)C(=O)N[C@H](Cc1ccc(O)cc1)C(=O)N[C@H](C)C(=O)N[C@]1(C)CCCC=CCCC[C@](C)(C(=O)N[C@H](CC(C)C)C(=O)N[C@H](CO)C(=O)N[C@H](C)C(=O)N[C@H](C)C(=O)N[C@H](C)C(N)=O)NC(=O)[C@@H](CCC(N)=O)NC(=O)[C@@H](CCC(=O)O)NC(=O)[C@@H](Cc2ccc(C(F)(F)F)cc2)NC1=O)[C@H](C)O [MP-0230] (Ac-[dT][dA][dTrp(6-F)][dY][dA][R5][dPhe(4-CF3)][dE][dQ][R5][dL][dS][dA][dA][dA]-NH2; staple 6-10),1.44 µM,12.86%,> 50.4 µM,140 µM,–,–,–,-3.99%,> 50.4 µM,49.95%,96.81%,84.65%,4.34 µM,190 A^2,–
CC(=O)N[C@@H](C(=O)N[C@H](C)C(=O)N[C@H](Cc1c[nH]c2cc(F)ccc12)C(=O)N[C@H](Cc1ccc(O)cc1)C(=O)N[C@H](C)C(=O)N[C@]1(C)CCCC=CCCC[C@](C)(C(=O)N[C@H](CC(C)C)C(=O)N[C@H](CO)C(=O)N[C@H](C)C(=O)N[C@H](C)C(=O)N[C@H](C)C(=O)N[C@H](C)C(=O)N[C@H](C)C(=O)N[C@H](C)C(N)=O)NC(=O)[C@@H](CCC(N)=O)NC(=O)[C@@H](CCC(=O)O)NC(=O)[C@@H](Cc2ccc(C(F)(F)F)cc2)NC1=O)[C@H](C)O [MP-042] (Ac-[dT][dA][dTrp(6-F)][dY][dA][R5][dPhe(4-CF3)][dE][dQ][R5][dL][dS][dA][dA][dA][dA][dA][dA]-NH2; staple 6-10),0.612 µM,12.4%,> 50.4 µM,–,–,0.6 µM,0.28 µM and 0.3 µM,2.411%,> 50.4 µM,57.4%,91.28%,98.03%,0.284 µM,–,"overall improvement of cellular activity compared to initial parent peptide (MP-769) ([1]; 10% serum, 16-hour): > 178 fold; EC50 [3, 19]: > 50 µM"
